According to a melting point compilation (Tetko et al.; mined from patent text by program, amines drawn as free bases though some values may be those of a salt):
Residues, ends and D or L forms follow the SMILES beside them. *: point of attachment. Bz = O=C(c1ccccc1)*

`CCNC(=O)[C@H](C)NC(=O)[C@H](C)NC(=O)c1ccccc1` (Bz-Ala-Ala-NHEt) showed a melting point of 237 to 239 °C. Molecule `FC(F)(F)Sc1ccc2c(c1)C(=C1CCN(CC3CC3)CC1)c1ccccc1C=C2` has a melting point of 143 to 144 °C. `C1=C(c2cccs2)CCC(N2CCN(c3ccccn3)CC2)C1` (stereo not given) showed a melting point of 156 to 158 °C. `CNC(=S)Nc1ccc2c(c1)C(=O)C1(CC1)O2` showed a melting point of 191 to 194 °C. `CCC(OCC(F)(F)F)c1ccc(Cl)c2nc3n(c12)CCCN3c1ccc(OC)nc1C` (stereo not given) showed a melting point of 124 to 126 °C. `O=C1CC(c2cccc(-n3ccnc3)c2)=Nc2ccc(-c3ccccc3)cc2N1` gave a melting point of 201 to 205 °C. `CCOC(=O)C(=O)Nc1ccc2c(=O)n3c(nc2c1)C(=Cc1ccc(OC)cc1OC)CC3` gave a melting point of 285 to 288 °C. With `Cc1ccc(-c2c(C3CCN(C)CC3)[nH]c(=O)c3ccccc23)cc1` the melting point was 244 to 246 °C. Molecule `O=C(O)C1c2cc(Br)ccc2OCc2ncccc21` (stereo not given) has a melting point of 126 to 127 °C. Work on `CN1C(=O)CCC2c3ccc(Cl)cc3CCC21` (stereo not given) yielded a melting point of 82 °C. In the case of `O[C@H]1COC(c2ccc(Cl)cc2)=N[C@@H]1c1ccccc1` (racemic), the melting point is reported as 142 °C. In the case of `Nc1ccnc(CCCCCN2C(=O)c3ccccc3C2=O)n1`, the melting point is reported as 101 to 104 °C. For `O=C(O)c1ccc2c(c1)CCc1ccc(O)cc1C2=O`, the melting point was 256 to 257 °C. Work on `Cc1ccc(-c2nnnn2C)c(S(N)(=O)=O)c1` yielded a melting point of 161 to 171 °C. `CCN1CCCC1CNC(=O)c1c(OC)c(Cl)cc(Cl)c1OC` (stereo not given) gave a melting point of 120 to 121 °C. Molecule `CC1(C)CCC(C)(C)C(=O)C1=O` has a melting point of 109 to 111 °C. Work on `CCOC(=O)C(c1ccc(Nc2nc(-c3cccc(NC(=O)c4ccc(C(C)(C)C)cc4)c3C)cn(C)c2=O)cc1)N(C)C(C)C` (stereo not given) yielded a melting point of 119 to 120 °C. In the case of `CCC(CC)(CC(=O)Nc1ccc2ccc(OCc3ccc4cccc(F)c4n3)cc2c1)C(=O)O`, the melting point is reported as 141 to 142 °C. Work on `COc1ccc2c(Nc3ccc(C)c(O)c3)c(C#N)cnc2c1` yielded a melting point greater than 250 °C. With `O[C@@H]1CCC(c2ccccc2)(c2ccccc2)[C@@H]2CN(Cc3ccccc3)C[C@H]12` the melting point was 154 °C. `N#CCCNC(=O)C1=CC(CF)(CF)Oc2ccc(Br)cc21` gave a melting point of 140 to 142 °C. `CC(=O)N(C)c1cccc(OC(CCc2ccc(Cl)cc2)Cn2ccnc2)c1` (stereo not given) showed a melting point of 229 to 231 °C. `CN(C)c1n[nH]c(=O)n1N(C)C` gave a melting point of 93 °C. Work on `CC(C)n1c(C=O)c(-c2ccc(F)cc2)c(-c2ccc(F)cc2)c1C(=O)OCc1ccccc1` yielded a melting point of 94 to 95 °C. In the case of `O=C(O)c1cccc2c1ccn2-c1ccnc(N[C@H]2CC[C@H](O)CC2)n1`, the melting point is reported as 259 to 261 °C. `CCN(Cc1ccccc1)C(=O)c1c(-c2ccncc2)c(-c2ccc(F)cc2)nn1CC` gave a melting point of 115 to 117 °C. Work on `CC(C)=CCOC(C)C1CC=C2C3=C(CCC21C)C1(C)CCC(O)C(C)(C)C1CC3` (stereo not given) yielded a melting point of 117 to 120 °C. For `CCOC(=S)SCc1cc(OC)nc(N)n1`, the melting point was 91 to 93 °C. Work on `Cc1ccc(OC(=O)CCC(=O)OOC(C)(C)C)cc1` yielded a melting point of 72 to 77 °C. Molecule `CC(C)N1CC2CC(CN(C(=O)c3ccc(Cl)cc3)C2)C1` has a melting point of 97 to 98 °C. Molecule `CS(=O)(=O)c1cc2c(c(C=O)c1O)CCC2` has a melting point of 152 to 153 °C. For `CC(C)(C)OC(=O)[C@H]1C[C@H](C(=O)Nc2ccccc2)[C@@H](c2ccccc2F)N1C(=O)CNC(=O)Nc1cccc(C(=O)O)c1` (racemic), the melting point was 170 °C. With `COC(=O)c1ccc(C(=O)Nc2ccccc2OC)cc1` the melting point was 119 to 121 °C. `COC(=O)c1snc(-c2ccc(OC)cc2)c1N` showed a melting point of 129 to 131 °C. With `O=C(O)CC(NC(=O)c1ccc2c(c1)CCC(=NNC1=NCCN1)C1=C2CCC1)c1cccnc1` (stereo not given) the melting point was 126 to 128 °C. Work on `CC1(C2CCCC2)Cc2cc(NCCO)c(Cl)c(Cl)c2C1=O` (stereo not given) yielded a melting point of 135 to 136 °C. With `NC(CCN(CCC(N)=NO)CCN(CCC(N)=NO)CCC(N)=NO)=NO` the melting point was 191 to 192 °C. Molecule `COc1cc2c(ccn2S(C)(=O)=O)cc1Br` has a melting point of 126 to 129 °C. For `CCCC(C)n1c(=O)nc(-n2cccn2)[nH]c1=O` (stereo not given), the melting point was 99 to 100 °C. `COC(=O)c1c(-c2cccc([N+](=O)[O-])c2)cc(-c2ccccc2)nc1C` showed a melting point of 127 to 129 °C. With `Fc1ccc2nccc(Cl)c2c1` the melting point was 71 to 74 °C. `CC(=O)c1nn(CCOS(C)(=O)=O)cc1C` showed a melting point of 108 to 109 °C. In the case of `O=C(NCc1cccnc1)c1ccc(OCc2ccc3ccccc3n2)cc1C1(c2ccccc2)CC2CCC1C2` (stereo not given), the melting point is reported as 179 to 181 °C. `CC(=O)NCc1ccc(CN2CCN(c3ccc(F)cc3NC(C)=O)CC2)cc1` showed a melting point of 148 to 150 °C. With `Cc1cc2c(c3c1NC(=O)C(C)(C)C3)OC(C)(CN=[N+]=[N-])C2` (stereo not given) the melting point was 169 to 170 °C. `CCC(O)CP(=O)(O)CCCN` (stereo not given) showed a melting point of 184 to 185 °C. `CC(C)(O)Cn1c(CO)nc2c(N)nc3cc(OCc4cscn4)ccc3c21` gave a melting point of 260 to 262 °C. `COc1ccccc1CN[C@H]1CCCN(CCCc2ccccc2)[C@H]1c1ccccc1` (relative stereo) showed a melting point of 120 to 125 °C. With `COc1ccc(C2=NN(c3ccccc3)C(=O)[C@H]3CC=CC[C@@H]23)cc1Cl` (relative stereo) the melting point was 151 to 152 °C. `CC(C)(C)OC(=O)N1CCc2ccc3ccn(CCO)c3c2CC1` showed a melting point of 226 to 229 °C. `COc1ccc(Cc2cc3cccc(-c4cccc(C(=O)NCCN5CCCC5)c4)c3o2)cc1OC` showed a melting point of 119 to 120 °C. Molecule `O=C(O)CCC/C=C\[C@@H]1C[C@@H](NS(=O)(=O)c2ccccc2)CN1S(=O)(=O)c1ccc(Cl)cc1` has a melting point of 121 to 123 °C. Work on `Nc1ccc(S(=O)(=O)c2cc(-c3ccsc3)nc(N3CCCC3)c2)cc1` yielded a melting point of 260 °C. With `CCCCCCCCCCCCOc1cc(C#N)c(C#N)cc1OCCOCCOCCOC` the melting point was 38 to 40 °C. With `CCCCCCCCCCCCCCOc1ccc(CN(C(=O)NC)c2cccc(CBr)c2)cc1` the melting point was 70 to 73 °C. Molecule `CN(O)C(=O)C1=Cc2cc(OCc3ccccc3)ccc2OC1` has a melting point of 143 to 146 °C. For `CN1C(=O)N(c2ccc([N+](=O)[O-])c(C(F)(F)F)c2)C(=O)C1(C)C`, the melting point was 116 °C. Molecule `CCn1nc(C(=O)OC)cc1C` has a melting point of 165 to 168 °C. Molecule `O=C(Oc1ccccc1)N1CCC2(CC1)SC(c1cccc(F)c1)c1ccccc12` (stereo not given) has a melting point of 134 to 142 °C. Work on `COC(=O)CC1CCN(C(=O)N2CCC(c3ccc(C#N)cc3)CC2)CC1` yielded a melting point of 115 to 118 °C. For `Cc1ccc(C=C(C#N)c2ccccc2)cc1`, the melting point was 61 °C. Work on `Cc1c(C(=O)NC2CCN(Cc3ccccc3)CC2)c2cc(F)ccc2n1Cc1ccccc1` yielded a melting point of 194 to 195 °C. In the case of `c1cc(-c2ccc(N3CCCN(c4ccc(-c5ccsc5)cn4)CC3)nc2)cs1`, the melting point is reported as 234 to 236 °C. Work on `O=C(O)c1cc(S(=O)(=O)Oc2ccc(-c3ccc(-c4c(Cc5ccccc5)oc5ccccc45)cc3)cc2)ccc1O` yielded a melting point of 171 to 173 °C. For `O=[N+]([O-])CC(SC(=S)N1CCCC1)c1ccccc1` (stereo not given), the melting point was 116 to 120 °C. In the case of `CCCc1c(OCCCOc2ccc3c(c2CCC)OC(CCC(=O)O)CC3)ccc(C(C)=O)c1O` (stereo not given), the melting point is reported as 109 to 110 °C. For `COC(C)(C)C(=O)COc1ccc(Cl)cc1Cl`, the melting point was 45.5 to 47.5 °C. With `COc1cc2c(O)cnnc2cc1OCc1ccccc1` the melting point was 262 to 264 °C. With `NC(=S)Cn1c(=O)sc2ccccc21` the melting point was 205 to 207 °C. Work on `Cc1cc2c(cc1C(=O)CO)C(C)(C)CC(C)C2(C)C` (stereo not given) yielded a melting point of 81 to 82 °C. Molecule `CC(C)(C)C(=O)c1ccc(CSCc2ccc(C(=O)C(C)(C)C)cc2)cc1` has a melting point of 64 to 65 °C. For `COC(=O)C=CCC1C(=O)N2C(C(=O)OCC(Cl)(Cl)Cl)=CCC12` (stereo not given), the melting point was 101 to 102 °C. For `Cn1cncc1C1SCCCS1`, the melting point was 112 °C. Molecule `COc1ccc(C(=O)Nc2cccc(Cl)c2)cc1N` has a melting point of 144 to 146 °C. Molecule `Cc1cccc2c1sc1nc(C(F)(F)F)nn12` has a melting point of 80 to 81 °C. `CCOC(=O)c1c2ccc(Cl)cc2c(-c2ccccc2)n1CCCO` showed a melting point of 94 to 96 °C. `CC(C)OCC1(C(C)(F)F)c2cc(Cl)ccc2Nc2ncccc21` (stereo not given) showed a melting point of 148 to 149 °C. `Clc1ccc(C2CCN3c4ccccc4C4=NCCN4C23)cc1` (stereo not given) showed a melting point of 158 to 160 °C. With `Cc1cc(Oc2ncc(Cl)cc2Cl)cc(C)c1N=C=NC(C)(C)C` the melting point was 69 to 71 °C. `CCOC(=O)c1c(C)nc2c(cnn2CC)c1O` gave a melting point of 118 to 120 °C. `COC(=O)c1nc(C)c(-c2nccs2)s1` showed a melting point of 129 to 130 °C. For `CC(C)CN1C(=O)[C@@H](CCCl)O[C@H](c2ccccc2Cl)c2cc(Cl)ccc21` (relative stereo), the melting point was 138 to 140 °C. `CCOC(=O)c1ccc(CC(C)NCC(O)c2ccc(O)c(CO)c2)cc1` (stereo not given) showed a melting point of 92 to 96 °C. For `O=C1N=C(N2CCOCC2)SC1Cc1cccc(-c2ccc(O)c(C3CCCCC3)c2)c1` (stereo not given), the melting point was 100 to 108 °C. `O=C1N(N2CCOCC2)c2ccccc2C1(O)Cc1ccncc1` (stereo not given) gave a melting point of 198 to 200 °C. Work on `CC(=O)NCC1CN(c2cc(F)c(N3CCC(n4ccnn4)C(F)C3)c(F)c2)C(=O)O1` (stereo not given) yielded a melting point of 176 to 178 °C. `O=C(NS(=O)(=O)C(F)(F)F)c1cccc([N+](=O)[O-])c1` gave a melting point of 80 to 83 °C. `CNC(=O)c1ncn(C(OC)c2ccc(Cl)c(Cl)c2)c1C(=O)NC` (single isomer, unassigned; (+)) showed a melting point of 112 to 114 °C. For `CC(=O)NC(C)(C)c1ccc(CN2CCN(c3ccc(F)cc3)CC2)cc1`, the melting point was 104 to 106 °C. `O=c1[nH]c(N2CCOCC2)nc2c(N3CCCCCC3)nc(N3CCOCC3)cc12` gave a melting point of 240 °C. Work on `CCC(=O)c1ccc(COc2ccc(CO)c(CO)c2)s1` yielded a melting point of 123 °C. Molecule `CC(C)(C)C(F)(F)c1ccc(C[C@H]2NC(=O)O[C@H]2c2cccc(Cl)c2)cc1` (racemic) has a melting point of 188 to 190 °C. Work on `Nc1ccc(Oc2ccccc2OCc2ccccc2)cc1` yielded a melting point of 111 to 112 °C. In the case of `Cc1sc(C(=O)OCc2ccccc2)cc1[N+](=O)[O-]`, the melting point is reported as 57 to 58 °C. In the case of `O=C(Cc1noc2ccccc12)N[C@H]1CC[C@H](CCN2CCC(c3cccc4c3CCO4)CC2)CC1`, the melting point is reported as 214 °C. In the case of `CCN1c2ncccc2C(=O)Nc2c(C)cc(N3CCCC(CO)C3)nc21` (stereo not given), the melting point is reported as 194 to 197 °C. Molecule `CCOC(=O)C=Cc1cc(OC)c(OC)c(OC)c1` has a melting point of 63.4 °C. In the case of `Cc1ccccc1NC(=O)Nc1ccc(C(=O)N2CCCCc3sccc32)cc1`, the melting point is reported as 179 to 182 °C. For `N#CNC(=Nc1ccccc1)NCCNCC(O)COc1ccccc1C#N` (stereo not given), the melting point was 146 to 147 °C. With `CN1CCC(c2cnn3c(-c4cccc(NC(=O)c5cccc(C(F)(F)F)c5)c4)ccnc23)CC1` the melting point was 183 to 185 °C.
